Measurements from patent publication US20150087673A1, “METHODS FOR USING AND BIOMARKERS FOR AMPK-ACTIVATING COMPOUNDS” (RIGEL PHARMACEUTICALS, INC., priority 2013, published 2015).

These molecules were tested on AMPK (assay: AMPK activation assay (enzyme-linked immunosorbent assay)).
Type: cell-based
Summary of the method: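 Activation by each compound is measured using a conventional commercial immunoassay kit.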

EC50 [µM] | SMILES
< 0.5 | CS(=O)(=O)c1ccc(OC2CCN(C(=O)c3ccc(C(=O)Nc4ccc(Oc5ccc(F)cc5)nc4)nc3)CC2)cc1 [Compound 231, N-(6-(4-fluorophenoxy)pyridin-3-yl)-5-(4-(4-(methylsulfonyl)phenoxy)piperidine-1-carbonyl)picolinamide]
< 0.5 | O=C(NC1CCN(Cc2cc(F)cc(F)c2)CC1)c1ccc(C(=O)N2CCC(C(=O)c3ccc(F)cc3)CC2)cn1 [Compound 288, N-(1-(3,5-difluorobenzyl)piperidin-4-yl)-5-(4-(4-fluorobenzoyl)piperidine-1-carbonyl)picolinamide]
< 0.5 | N#Cc1ccc(OC2CCN(C(=O)c3ccc(C(=O)N[C@H]4CC[C@@H](Oc5ccc(F)cc5)CC4)cn3)CC2)cc1 [Compound 324, 6-(4-(4-cyanophenoxy)piperidine-1-carbonyl)-N-((cis)-4-(4-fluorophenoxy)cyclohexyl)nicotinamide]
< 0.5 | N#Cc1ccc(OC2CCN(C(=O)c3ccc(C(=O)NCCOc4ccc(F)cc4)nc3)CC2)cc1 [Compound 306, 5-(4-(4-cyanophenoxy)piperidine-1-carbonyl)-N-(2-(4-fluorophenoxy)ethyl)picolinamide]
1 to 5 | N#Cc1ccc(CN2CCC(NC(=O)c3ccc(C(=O)N4CCN(C(=O)C5CCCCC5)CC4)cn3)CC2)cc1 [Compound 89, N-(1-(4-cyanobenzyl)piperidin-4-yl)-5-(4-(cyclohexanecarbonyl)piperazine-1-carbonyl)picolinamide]
1 to 5 | O=C(c1ccc(C(=O)N2CCN(CCc3ccccc3)CC2)nc1)N1CCN(Cc2ccc(F)cc2)CC1 [Compound 88, (4-(4-fluorobenzyl)piperazin-1-yl)(6-(4-phenethylpiperazine-1-carbonyl)pyridin-3-yl)methanone]
< 0.5 | N#Cc1ccc(CN2CCC(NC(=O)c3ccc(C(=O)NC4CCN(c5ccc(C#N)cc5)CC4)cn3)CC2)cc1 [Compound 166, N2-(1-(4-cyanobenzyl)piperidin-4-yl)-N5-(1-(4-cyanophenyl)piperidin-4-yl)pyridine-2,5-dicarboxamide]
< 0.5 | CS(=O)(=O)c1ccc(OC2CCN(C(=O)c3ccc(C(=O)NC4CCN(Cc5cc(F)cc(F)c5)CC4)nc3)CC2)cc1 [Compound 203, N-(1-(3,5-difluorobenzyl)piperidin-4-yl)-5-(4-(4-(methylsulfonyl)phenoxy)piperidine-1-carbonyl)picolinamide]
< 0.5 | COc1ccc(C(=O)C2CCN(c3ccc(C(=O)NC4CCN(Cc5ccc(C#N)cc5)CC4)nc3)CC2)cc1 [Compound 302, N-(1-(4-cyanobenzyl)piperidin-4-yl)-5-(4-(4-methoxybenzoyl)piperidin-1-yl)picolinamide]
< 0.5 | COc1ccc(CN2CCC(NC(=O)c3ccc(C(=O)N4CCN(Cc5ccc(F)cc5)CC4)cn3)CC2)cc1 [Compound 117, 5-(4-(4-fluorobenzyl)piperazine-1-carbonyl)-N-(1-(4-methoxybenzyl)piperidin-4-yl)picolinamide]
1 to 5 | CC(C)N1CCN(C(=O)c2ccc(C(=O)NC3CCN(Cc4ccc(C#N)cc4)CC3)nc2)CC1 [Compound 84, N-(1-(4-cyanobenzyl)piperidin-4-yl)-5-(4-isopropylpiperazine-1-carbonyl)picolinamide]
< 0.5 | COc1ccc(OC2CCN(C(=O)c3ccc(C(=O)NC4CCN(Cc5ccc(C#N)cc5)CC4)nc3)CC2)cc1 [Compound 143, N-(1-(4-cyanobenzyl)piperidin-4-yl)-5-(4-(4-methoxyphenoxy)piperidine-1-carbonyl)picolinamide]
5 to 10 | N#Cc1ccc(CC2CCC(NC(=O)c3cccc(C(=O)N4CCN(Cc5ccc(F)cc5)CC4)n3)CC2)cc1 (stereo not shown) [Compound 99, N-(4-(4-cyanobenzyl)cyclohexyl)-6-(4-(4-fluorobenzyl)piperazine-1-carbonyl)picolinamide]
> 10 | O=C(c1ccc(C(=O)N2CCN(CCc3ccccc3)CC2)nc1)N1CCN(CCc2ccccc2)CC1 [Compound 92, pyridine-2,5-diylbis((4-phenethylpiperazin-1-yl)methanone)]
0.5 to 1 | COc1ccc(S(=O)(=O)N2CCN(C(=O)c3ccc(C(=O)NC4CCN(Cc5ccc(C#N)cc5)CC4)nc3)CC2)cc1 [Compound 79, N-(1-(4-cyanobenzyl)piperidin-4-yl)-5-(4-(4-methoxyphenylsulfonyl)piperazine-1-carbonyl)picolinamide]
< 0.5 | N#Cc1ccc(O[C@H]2CC[C@@H](NC(=O)c3ccc(C(=O)N4CCC(Oc5ccc(F)cc5)CC4)cn3)CC2)cc1 [Compound 167, N-((cis)-4-(4-cyanophenoxy)cyclohexyl)-5-(4-(4-fluorophenoxy)piperidine-1-carbonyl)picolinamide]
1 to 5 | CC(=O)Nc1cccc(OC2CCN(C(=O)c3ccc(C(=O)NC4CCN(Cc5ccc(C#N)cc5)CC4)cn3)CC2)c1 [Compound 411, 6-(4-(3-acetamidophenoxy)piperidine-1-carbonyl)-N-(1-(4-cyanobenzyl)piperidin-4-yl)nicotinamide]

EC50 [µM] | SMILES
< 0.5 | CC(=O)c1ccc(Oc2ccc(NC(=O)c3ccc(C(=O)N4CCC(Oc5ccc(S(C)(=O)=O)cc5)CC4)nc3)cn2)cc1 [Compound 485, N-(6-(4-acetylphenoxy)pyridin-3-yl)-6-(4-(4-(methylsulfonyl)phenoxy)piperidine-1-carbonyl)nicotinamide]
< 0.5 | O=C(NC1CCN(Cc2ccc(OC(F)(F)F)cc2)CC1)c1ccc(C(=O)N2CCC(Oc3ccc(S(=O)(=O)C4CC4)cc3)CC2)nc1 [Compound 249, 6-(4-(4-(cyclopropylsulfonyl)phenoxy)piperidine-1-carbonyl)-N-(1-(4-(trifluoromethoxy)benzyl)piperidin-4-yl)nicotinamide]
< 0.5 | COc1ccc(C(=O)C2CCN(C(=O)c3ccc(C(=O)N[C@@H]4CCN(Cc5ccc(N6CCCC6)cc5)C[C@H]4F)cn3)CC2)cc1 (relative stereo) [Compound 352, N-((trans)-3-fluoro-1-(4-(pyrrolidin-1-yl)benzyl)piperidin-4-yl)-6-(4-(4-methoxybenzoyl)piperidine-1-carbonyl)nicotinamide]
< 0.5 | N#Cc1ccc(CN2CCC(NC(=O)c3ccc(C(=O)N4CCN(c5ccc(C(=O)C6CC6)cc5)CC4)cn3)CC2)cc1 [Compound 258, N-(1-(4-cyanobenzyl)piperidin-4-yl)-5-(4-(4-(cyclopropanecarbonyl)phenyl)piperazine-1-carbonyl)picolinamide]
0.5 to 1 | CC(=O)Nc1ccc(OC2CCN(C(=O)c3ccc(C(=O)NC4CCN(Cc5cccc(OC(F)(F)F)c5)CC4)cn3)CC2)cc1 [Compound 428, 6-(4-(4-acetamidophenoxy)piperidine-1-carbonyl)-N-(1-(3-(trifluoromethoxy)benzyl)piperidin-4-yl)nicotinamide]
< 0.5 | COc1cccc(OC2CCCN(C(=O)c3ccc(C(=O)NC4CCN(Cc5ccc(C#N)cc5)CC4)nc3)C2)c1 (stereo not shown) [Compound 277, N-(1-(4-cyanobenzyl)piperidin-4-yl)-5-(3-(3-methoxyphenoxy)piperidine-1-carbonyl)picolinamide]
< 0.5 | N#Cc1ccc(CN2CCC(NC(=O)c3ccc(C(=O)N4CCC(c5ccc(Cl)cc5)CC4)cn3)CC2)cc1 [Compound 134, 5-(4-(4-chlorophenyl)piperidine-1-carbonyl)-N-(1-(4-cyanobenzyl)piperidin-4-yl)picolinamide]
< 0.5 | O=C(Nc1ccc(Oc2ccc(F)cc2)nc1)c1ccc(C(=O)N2CCN(Cc3ccc(F)cc3)CC2)nc1 [Compound 334, 6-(4-(4-fluorobenzyl)piperazine-1-carbonyl)-N-(6-(4-fluorophenoxy)pyridin-3-yl)nicotinamide]
< 0.5 | COc1ccc(C(=O)C2CCN(C(=O)c3ccc(C(=O)NCCOc4ccc(F)cc4)nc3)CC2)cc1 [Compound 305, N-(2-(4-fluorophenoxy)ethyl)-5-(4-(4-methoxybenzoyl)piperidine-1-carbonyl)picolinamide]
1 to 5 | Cc1cc(CN2CCN(C(=O)c3ccc(C(=O)NC4CCN(Cc5ccccc5)CC4)nc3)CC2)no1 [Compound 85, N-(1-benzylpiperidin-4-yl)-5-(4-((5-methylisoxazol-3-yl)methyl)piperazine-1-carbonyl)picolinamide]
< 0.5 | COc1ccc(C(=O)C2CCN(C(=O)c3ccc(C(=O)Nc4ccc(Oc5ccc(C(C)=O)cc5)nc4)cn3)CC2)cc1 [Compound 462, N-(6-(4-acetylphenoxy)pyridin-3-yl)-6-(4-(4-methoxybenzoyl)piperidine-1-carbonyl)nicotinamide]
1 to 5 | COc1cccc(CN2CCC(NC(=O)c3ccc(C(=O)N4CCC(Oc5ccc(S(C)(=O)=O)cc5)CC4)nc3)CC2)c1 [Compound 238, N-(1-(3-methoxybenzyl)piperidin-4-yl)-6-(4-(4-(methylsulfonyl)phenoxy)piperidine-1-carbonyl)nicotinamide]
< 0.5 | N#Cc1cccc(Oc2ccc(NC(=O)c3ccc(C(=O)N4CCN(Cc5ccc(F)cc5)CC4)cn3)cn2)c1 [Compound 64, 5-(4-(4-fluorobenzyl)piperazine-1-carbonyl)-(6-(3-cyanophenoxy)pyridin-3-yl)picolinamide]
< 0.5 | N#Cc1ccc(CN2CCC(NC(=O)c3ccc(NC4CCN(c5ccc(C#N)cc5)CC4)cn3)CC2)cc1 [Compound 267, N-(1-(4-cyanobenzyl)piperidin-4-yl)-5-(1-(4-cyanophenyl)piperidin-4-ylamino)picolinamide]
1 to 5 | COc1ccc(C(=O)C2CCN(C(=O)c3ccc(C(=O)NC4CCN(Cc5ccc(NC(C)=O)cc5)CC4)cn3)CC2)cc1 [Compound 401, N-(1-(4-acetamidobenzyl)piperidin-4-yl)-6-(4-(4-methoxybenzoyl)piperidine-1-carbonyl)nicotinamide]
< 0.5 | N#Cc1ccc(CN2CCc3ccc(NC(=O)c4ccc(C(=O)N5CCN(Cc6ccc(F)cc6)CC5)cn4)cc3C2)cc1 [Compound 132, N-(2-(4-cyanobenzyl)-1,2,3,4-tetrahydroisoquinolin-7-yl)-5-(4-(4-fluorobenzyl)piperazine-1-carbonyl)picolinamide]
< 0.5 | COc1ccc(CN2CCC(NC(=O)c3ccc(C(=O)N4CCC(Oc5ccc(F)cc5F)CC4)nc3)CC2)cc1 [Compound 344, 6-(4-(2,4-difluorophenoxy)piperidine-1-carbonyl)-N-(1-(4-methoxybenzyl)piperidin-4-yl)nicotinamide]
